Converted amounts (≈) assume the structure as drawn. Read-outs that look alike come from different tables or passages of the source.

For data set [1], the system named is Y. pestis. Particulars: mouse, in vivo.
Data set [2] relates to Y. pestis. As to conditions: cited from earlier work.
The test system of data set [3] is E. coli. The data set can be described thus: microbe, parasite or virus in culture. The class given is cell-based, Escherichia coli. As to conditions: for MIC: read-out: MIC against E. coli.
Data set [4] relates to K. pneumoniae. Briefly: microbe, parasite or virus in culture. The class given is cell-based, Klebsiella pneumoniae.
For data set [5], the system named is Enterobacter spp. Briefly: microbe, parasite or virus in culture. Format: cell-based.
Data set [6] concerns P. mirabilis. The data set can be described thus: microbe, parasite or virus in culture. Format: cell-based, Proteus mirabilis.
In data set [7] the test system is C. koseri. Briefly: microbe, parasite or virus in culture. Format: cell-based, Citrobacter koseri.
Data set [8] concerns C. freundii. Briefly: microbe, parasite or virus in culture. The class given is cell-based, Citrobacter freundii.
The subject of data set [9] is S. marcescens. Briefly: microbe, parasite or virus in culture. The class given is cell-based, Serratia marcescens.
Data set [10] deals with M. morganii. Briefly: microbe, parasite or virus in culture. Format: cell-based, Morganella morganii.
The test system of data set [11] is Yersinia spp. Briefly: microbe, parasite or virus in culture. The class given is cell-based, Y. enterocolitica and Y. pseudotuberculosis.
For data set [12], the system named is Shigella spp. Briefly: microbe, parasite or virus in culture. Format: cell-based.
For data set [13], the system named is Salmonella spp. The data set can be described thus: microbe, parasite or virus in culture. The class given is cell-based, Salmonella enterica.
Data set [14] relates to P. aeruginosa. The data set can be described thus: microbe, parasite or virus in culture. The class given is cell-based, Pseudomonas aeruginosa.
The test system of data set [15] is A. baumannii. Briefly: microbe, parasite or virus in culture. Format: cell-based, Acinetobacter baumannii.
The test system of data set [16] is Enterobacteriaceae. Briefly: organism not typed. The class given is cell-based.
The subject of data set [17] is Y. pestis CO92. Format: cell-based, Yersinia pestis.
Data set [18] can be described thus: Microsomal stability analysis. Particulars: mouse, liver microsomes, pH 7.4. Background: Liver microsomes are a subcellular fraction often used to study metabolism.
Data set [19] concerns OF-1 female mice. The data set can be described thus: Tolerability study, 5-day intravenous regimen. As to conditions: mouse.
A short description of data set [20]: In vivo pharmacokinetics, single intravenous dose. Particulars: for half-life: female, OF-1, mouse, plasma, iv.

For the molecule `C[C@H]1c2cccc(O)c2C(=O)C2=C(O)[C@]3(O)C(=O)C(C(N)=O)=C(O)[C@@H](N(C)C)[C@@H]3[C@@H](O)[C@@H]21` [doxycycline, reference compound], the “survivors at day 21 postchallenge” value in data set [1] is on record as 14 out of 15. The “bacterial load in skin, lymph nodes, spleen, and blood of survivors” value in data set [1] (iv, 50 mg/kg) is “sterile”. The MIC in [2] was 0.5 µg/mL (≈ 1.13 µM).
As to `O=C(O)c1cn(C2CC2)c2cc(N3CCNCC3)c(F)cc2c1=O` [ciprofloxacin], the MIC in data set [2] was 0.03 µg/mL (≈ 0.0905 µM).
As for `CC(O)(C(F)F)C(NC(=O)c1ccc(C#Cc2ccc(CN3CCOCC3)cc2)cc1)C(=O)NO` (stereo not shown) [LPC-069], the “MIC Range” value in data set [3] was 0.05 to 0.4 µg/mL; in data set [4] it was 0.2 to 0.8 µg/mL; in [5], 0.1 to 1.6 µg/mL; in data set [6] it was 0.2 to 0.8 µg/mL; in data set [7], 0.1 to 1.6 µg/mL; in [8], 0.2 to 0.4 µg/mL. Further, the “MIC Range” value in data set [9] was 0.1 to 0.4 µg/mL; in data set [10], 0.2 to 1.6 µg/mL; in data set [11], 0.2 to 0.8 µg/mL; in data set [12] it was 0.025 to 0.2 µg/mL; in [13], 0.2 to 0.8 µg/mL; in data set [14] it was 0.2 to 3.2 µg/mL. Also, the MIC50 in [3] (Escherichia coli) was found to be 0.1 µg/mL (≈ 0.205 µM); in data set [4] (Klebsiella pneumoniae) it was 0.4 µg/mL (≈ 0.821 µM); in data set [5] (Enterobacter), 0.2 µg/mL (≈ 0.41 µM); in [6] (Proteus mirabilis) it was 0.2 µg/mL (≈ 0.41 µM); in [7] (Citrobacter koseri) it was 0.4 µg/mL (≈ 0.821 µM); in [8] (Citrobacter freundii), 0.2 µg/mL (≈ 0.41 µM). Moreover, the MIC50 in [9] (Serratia marcescens) came to 0.2 µg/mL (≈ 0.41 µM); in data set [10] (Morganella morganii), 0.2 µg/mL (≈ 0.41 µM); in data set [11] (Yersinia) it was 0.4 µg/mL (≈ 0.821 µM); in [12] (Shigella) it was 0.05 µg/mL (≈ 0.103 µM); in data set [13] (Salmonella) it was 0.4 µg/mL (≈ 0.821 µM); in data set [14] (Pseudomonas aeruginosa), 1.6 µg/mL (≈ 3.28 µM). Also, the MIC50 in data set [15] (Acinetobacter baumannii) worked out at 0.8 µg/mL (≈ 1.64 µM). In addition, the MIC90 came out at 0.2 µg/mL (≈ 0.41 µM) in data set [3] (Escherichia coli); 0.8 µg/mL (≈ 1.64 µM) in [4] (Klebsiella pneumoniae); 0.4 µg/mL (≈ 0.821 µM) in [5] (Enterobacter); 0.4 µg/mL (≈ 0.821 µM) in data set [6] (Proteus mirabilis); 0.4 µg/mL (≈ 0.821 µM) in data set [7] (Citrobacter koseri); 0.4 µg/mL (≈ 0.821 µM) in data set [8] (Citrobacter freundii). Besides, the MIC90 was 0.2 µg/mL (≈ 0.41 µM) in [9] (Serratia marcescens); 0.8 µg/mL (≈ 1.64 µM) in data set [10] (Morganella morganii); 0.8 µg/mL (≈ 1.64 µM) in data set [11] (Yersinia); 0.1 µg/mL (≈ 0.205 µM) in data set [12] (Shigella); 0.4 µg/mL (≈ 0.821 µM) in [13] (Salmonella); 3.2 µg/mL (≈ 6.56 µM) in data set [14]. Further, the MIC90 is 3.2 µg/mL (≈ 6.56 µM) in [14] (Pseudomonas aeruginosa), 3.2 µg/mL (≈ 6.56 µM) in [15], 3.2 µg/mL (≈ 6.56 µM) in [15] (Acinetobacter baumannii) and 0.2 to 0.8 µg/mL (≈ 0.41 to 1.64 µM) in data set [16]. For the same molecule, the MIC in data set [3] (Escherichia coli) is 0.1 µg/mL (≈ 0.205 µM). Besides, in data set [14], the “more active than ceftazidime-avibactam” value is listed as 4- to 8 fold. Moreover, the “type of antibacterial effect (kill curve)” value in data set [17] was “bacteriostatic effect”. Besides, the “survivors at day 21 postchallenge” value in [1] is given as 15 out of 15. In addition, in data set [1] (iv, 40 mg/kg), the “colonization of the lymph nodes, spleen, and blood relative to nontreated controls” value is “significantly (P < 0.02) lower colonization”. For the same molecule, in data set [1] (iv, 40 mg/kg), the survival rate was ≥ 80%. Further, the “bacterial load in skin, lymph nodes, spleen, and blood of survivors” value in data set [1] (iv, 200 mg/kg) is listed as “sterile”. In data set [1] (iv, 200 mg/kg), the posttreatment relapse result was “only one of the 15 animals”. The half-life (as a rule, how long it takes for the measured level to halve) at 1 µM in [18] came to 44 min. In addition, the microsomal CLint – broadly, the capacity of the preparation to metabolise the compound, expressed as a volume cleared per time – at 1 µM in data set [18] was 52 µL/min/mg. Besides, the “diarrhea and detectable toxicity” value in data set [19] (5 days, any of the regimens tested (including 200 mg/kg q8h)) is “did not elicit any diarrhea or detectable toxicity”. The molecule further registered a half-life in data set [20] (40 mg/kg) of 10 min. This molecule showed a distribution volume in data set [20] (mouse, single intravenous 40-mg/kg dose) of 3.8 L/kg.
As to `CC(O)(C(F)F)C(NC(=O)c1ccc(C#CC#Cc2ccc(N)cc2)cc1)C(=O)NO` (stereo not shown) [LPC-058], the MIC in data set [3] (Escherichia coli) was 0.025 µg/mL (≈ 0.0585 µM). Moreover, in data set [17], the “type of antibacterial effect (kill curve)” value is reported as “bacteriostatic effect”. In data set [1] (iv, 10 mg/kg), the “colonization of the lymph nodes, spleen, and blood relative to nontreated controls” value was “significantly (P < 0.02) lower colonization”; the survival rate is ≥ 80%. In data set [18], this molecule gave a half-life at 1 µM of 95 min and a microsomal CLint at 1 µM of 24 µL/min/mg. Moreover, in data set [19] (10 mg/kg q8h, 5 days), the “renal function (blood urea nitrogen) and hepatic function” value is “normal”; the tissue damage entry is “no tissue damage was detected”. In addition, in [19] (40 mg/kg q12h, 5 days), the “histology (hematoxylin-eosin, 5-µm sections)” value was “accumulation of polymorphonuclear cells in the lung and large intestine”; the “liver toxicity (blood alanine aminotransferase level)” value is recorded as “liver toxicity”. Also, in data set [19] (5-day regimen), the “plasma protein levels at the end of the 5-day regimen” value is on record as “Low plasma protein levels”. In [19] (5-day regimen, regardless of regimen (10 mg/kg q8h, 20 mg/kg q12h, 40 mg/kg q12h)), the “appearance of diarrhea after the first injection” value is 3 days. The “AUC greater than AUC of LPC-069” value in [20] (LPC-058 single dose 20 mg/kg versus LPC-069 single dose 40 mg/kg, mouse) is listed as “approximately 10 fold”. In addition, the half-life in data set [20] (20 mg/kg) was found to be 53 min. The molecule also showed a tissue distribution volume in data set [20] (mouse, single intravenous dose of 20 mg/kg) of 1.1 L/kg.

The record behind these values is paper PMC5527309, “Curative Treatment of Severe Gram-Negative Bacterial Infections by a New Class of Antibiotics Targeting LpxC” (mBio, 2017).
